“Also recorded” adds a separate entry of the source.
Key:
human TRPV1 = biological target: T1, human TRPV1 (Homo sapiens, UniProt Q8NER1); test: Ca2+ signal in N2a cells transfected with human TRPV1 (capsaicin stimulation); type: cell-based; conditions: 5 μM capsaicin stimulation
T1 construct: expressed in transfected cells; host or cells: N2a cells
Description: (§1) Compounds were tested for their effect on TRPV1, TRPV2, and TRPV3. Methods were similar to those described in Example 15. Briefly, N2a cells were transfected with human TRPV1, TRPV2, or TRPV3. eGFP-transfection was used as control. For specific stimulation of TRPV1, 5 μM capsaicin was used. For stimulation of TRPV2, hypotonicity (260 mosmol/L) was used, based on previous reports of TRPV2 being osmotically responsive. N2a cells were not responsive to hypotonicity, and neither were control-transfected cells. For TRPV3-expressing cells, camphor (20% of a commercially available stock solution) was used. […] Stimulation and control protocols were applied as for TRPA1-expressing N2a cells as detailed above in Example 15.
(§2) For TRPV1, TRPV2, and TRPV3, Ca2+ transience was not affected by administration of 16-8 or 16-8/18hy.

human TRPV2 = biological target: T2, human TRPV2 (Homo sapiens, UniProt Q9Y5S1); test: Ca2+ signal in N2a cells transfected with human TRPV2 (hypotonicity stimulation); type: cell-based; conditions: hypotonicity (260 mosmol/L) stimulation
T2 construct: expressed in transfected cells; host or cells: N2a cells
T2 sequence (Q9Y5S1 1-764): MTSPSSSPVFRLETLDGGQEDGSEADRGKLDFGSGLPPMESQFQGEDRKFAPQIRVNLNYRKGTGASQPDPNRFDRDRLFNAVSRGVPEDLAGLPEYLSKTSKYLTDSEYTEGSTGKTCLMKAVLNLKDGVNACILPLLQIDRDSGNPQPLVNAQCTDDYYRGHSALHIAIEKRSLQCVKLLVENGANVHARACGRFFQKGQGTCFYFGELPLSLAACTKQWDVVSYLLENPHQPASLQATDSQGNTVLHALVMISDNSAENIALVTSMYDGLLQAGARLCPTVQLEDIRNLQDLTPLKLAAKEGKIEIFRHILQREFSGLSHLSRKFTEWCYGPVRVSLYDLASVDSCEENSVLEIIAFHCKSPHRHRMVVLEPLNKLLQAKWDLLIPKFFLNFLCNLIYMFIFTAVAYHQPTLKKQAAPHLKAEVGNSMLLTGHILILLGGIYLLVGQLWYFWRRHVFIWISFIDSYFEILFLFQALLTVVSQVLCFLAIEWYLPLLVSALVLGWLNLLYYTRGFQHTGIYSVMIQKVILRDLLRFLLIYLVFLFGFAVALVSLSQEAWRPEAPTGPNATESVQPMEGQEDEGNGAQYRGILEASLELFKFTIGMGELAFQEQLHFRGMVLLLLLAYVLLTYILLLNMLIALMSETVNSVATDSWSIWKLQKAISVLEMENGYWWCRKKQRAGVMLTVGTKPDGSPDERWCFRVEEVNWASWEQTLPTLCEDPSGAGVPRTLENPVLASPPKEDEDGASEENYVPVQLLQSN
Description: as §1, §2

human TRPV3 = biological target: T3, human TRPV3 (Homo sapiens, UniProt Q8NET8); test: Ca2+ signal in N2a cells transfected with human TRPV3 (camphor stimulation); type: cell-based
T3 construct: expressed in transfected cells; host or cells: N2a cells
T3 sequence (Q8NET8 1-790): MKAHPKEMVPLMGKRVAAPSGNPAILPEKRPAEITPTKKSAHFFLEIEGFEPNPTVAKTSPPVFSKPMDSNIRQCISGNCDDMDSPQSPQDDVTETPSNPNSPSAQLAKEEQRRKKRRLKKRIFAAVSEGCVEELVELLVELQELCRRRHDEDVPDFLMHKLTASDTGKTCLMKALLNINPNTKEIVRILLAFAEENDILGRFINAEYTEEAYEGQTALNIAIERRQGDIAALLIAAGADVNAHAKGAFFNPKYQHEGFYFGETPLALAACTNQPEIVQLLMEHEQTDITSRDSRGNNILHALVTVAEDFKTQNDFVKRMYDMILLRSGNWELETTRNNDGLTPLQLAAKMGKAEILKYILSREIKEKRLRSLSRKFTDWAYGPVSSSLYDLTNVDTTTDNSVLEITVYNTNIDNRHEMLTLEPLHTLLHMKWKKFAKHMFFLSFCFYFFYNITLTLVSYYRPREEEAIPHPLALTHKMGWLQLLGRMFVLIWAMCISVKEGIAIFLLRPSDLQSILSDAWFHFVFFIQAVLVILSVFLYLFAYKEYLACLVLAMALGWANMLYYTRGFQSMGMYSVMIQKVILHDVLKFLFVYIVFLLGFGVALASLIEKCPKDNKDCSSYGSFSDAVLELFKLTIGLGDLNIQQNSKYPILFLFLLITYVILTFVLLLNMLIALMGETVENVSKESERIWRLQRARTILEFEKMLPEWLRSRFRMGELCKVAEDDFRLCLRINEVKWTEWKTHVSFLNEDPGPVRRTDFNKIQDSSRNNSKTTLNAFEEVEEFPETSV
Description: as §1, §2

[1] = UVB permeation of foot-pad skin (sunscreen test); design: species or system mouse; conditions: topically applied; GSK205 5 mM
Description: The UV LED was powered with 20 mA of current, resulting in 500 μW of optical power in a circular focal spot 1.5 mm in diameter, with 70% of the total flux in a 0.5 mm beam radius. The UV optical power transmitted through the sample was detected by a Hamamatsu S127-66BR UV detector, and the output of the photodetector was measured using a Keithley 236 source measure unit. Next, the foot-pad epidermis of a mouse was measured for UV transmission by placing it on a quartz coverslip and exposure to the UV beam. The vehicle-control group was treated with the alcohol and glycerol solution only. Another control group consisted of a commercially-available SPF100 preparation sunscreen in form of a cream, which was applied similar to the vehicle-control. The data for the GSK205 and sunscreen was normalized to this control data.
To validate these finding, we tested UVB absorption in GSK205-treated paw-pad skin, and whether GSK205 thus functions as sunscreen.

T1 sequence (Q8NER1 whole entry): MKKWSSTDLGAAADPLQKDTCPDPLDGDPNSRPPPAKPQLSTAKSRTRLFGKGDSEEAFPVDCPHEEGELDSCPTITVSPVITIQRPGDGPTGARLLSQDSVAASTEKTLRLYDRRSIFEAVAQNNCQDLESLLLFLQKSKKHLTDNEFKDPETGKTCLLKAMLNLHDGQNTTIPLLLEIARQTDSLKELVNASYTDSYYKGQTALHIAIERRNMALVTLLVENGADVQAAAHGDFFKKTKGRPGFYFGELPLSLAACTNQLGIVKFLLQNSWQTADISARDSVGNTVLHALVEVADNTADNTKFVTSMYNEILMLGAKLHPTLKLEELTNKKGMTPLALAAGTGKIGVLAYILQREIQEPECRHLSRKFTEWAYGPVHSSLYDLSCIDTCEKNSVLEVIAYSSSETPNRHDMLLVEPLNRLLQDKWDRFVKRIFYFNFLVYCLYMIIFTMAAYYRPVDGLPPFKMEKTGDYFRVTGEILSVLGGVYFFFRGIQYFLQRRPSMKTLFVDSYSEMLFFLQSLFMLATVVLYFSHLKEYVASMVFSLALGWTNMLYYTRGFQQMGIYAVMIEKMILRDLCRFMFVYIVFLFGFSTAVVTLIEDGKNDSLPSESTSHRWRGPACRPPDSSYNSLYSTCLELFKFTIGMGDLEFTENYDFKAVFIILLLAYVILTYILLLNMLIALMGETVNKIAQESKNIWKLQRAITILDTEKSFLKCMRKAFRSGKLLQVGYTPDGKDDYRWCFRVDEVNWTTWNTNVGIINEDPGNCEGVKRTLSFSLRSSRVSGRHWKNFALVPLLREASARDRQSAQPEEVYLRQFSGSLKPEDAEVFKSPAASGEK

Row | SMILES | Ca2+ transience, TRPV1 (human TRPV1) | Ca2+ transience, TRPV2 (human TRPV2) | Ca2+ transience, TRPV3 (human TRPV3) | UVB permeation of paw-pad skin [1]
1 | CCN(CCc1ccc(Nc2nc(-c3ccccc3)cs2)cc1)Cc1ccccc1 [16-8/18hy] | not affected | not affected | not affected | 
2 | CN(CCc1ccc(Nc2nc(-c3ccccc3)cs2)cc1)Cc1ccccc1 [Compound 16-8] | not affected | not affected | not affected | 
3 | CN(CCc1ccc(Nc2nc(-c3cccnc3)cs2)cc1)Cc1ccccc1 [GSK205] |  |  |  | equal UVB permeation; also recorded: absence of a change in UVB permeation

— patent publication US11229628B2, “TRPA1 and TRPV4 inhibitors and methods of using the same for organ-specific inflammation and itch” (Duke University, priority 2015, dated 2022)
